# According to article PMC9015527 (Chemistry (Weinheim an Der Bergstrasse, Germany), 2021):
# Experiments:
# in vitro [1] = conditions: simian (monkey)
# [2] = tested on: SARS-CoV-2 isolate MUC-IMB-1/2020; assay: microbe, parasite or virus in culture; type: cell-based
# [3] = tested on: SARS-CoV-2 isolate MUC-IMB-1/2020; type: cell-based
# in vitro [4] = conditions: human, Caco-2
structure (smiles),measurement,setting,value
"CCN(CC)CCCC(C)Nc1ccnc2cc(Cl)ccc12 (stereo not shown) [CQ, chloroquine]",CC50,"in vitro [1]; CC50 (Vero 76, mAb-S)",> 100 µM
same,CC50,"in vitro [1]; CC50 (Vero 76, mAb-dsRNA)",> 30 µM
same,SI (Caco-2),SARS-CoV-2 d6-YFP,3.2
same,"SI (Vero 76, mAb-dsRNA)",[2],>14
same,EC50,"[2]; Severe acute respiratory syndrome coronavirus 2, Vero 76, read-out: EC50 (Vero 76, mAb-dsRNA)",2.2 ± 0.9 µM
same,"SI (Vero 76, mAb-S)",[3],>32.3
same,CC50,in vitro [4],41.7 ± 2.5 µM
